Experimental data reported in PubChem BioAssay AID1963425 (Molecular Pharmacology Branch, DTP, NCI, 2024).

Tested on: 323965-272-R-J2-PDC complex spheroid growth, % test/control
Experiment: Anticancer human tumor 323965-272-R-J2-PDC patient-derived pancreatic carcinoma cell line growth inhibition [Asc]
Details: for IC50: curve of first compound; for viability, T/C: stronger effect = lower value
Procedure, shortened: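 Tumor cells were grown as multicellular spheroids with stromal HUVEC and mesenchymal stem cells and treated singly or in combination. Concentrations fell in half-log steps from the clinical Cmax, or from 10 microM where none was known.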
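Note: compound exposure lasted 7 days starting three days after spheroid seeding.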
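Throughout, for viability, T/C: 100% = DMSO vehicle control wells with viability set relative to vehicle.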

Work on `Cc1nc(N2CCC3(CC2)COC(C)C3N)c(CO)nc1Sc1ccnc(N)c1Cl` (centres undefined) + CCN1C(C(=O)NC23CCC(C(=O)O)(CC2)CC3)C(c2cccc(Cl)c2F)C2(C(=O)Nc3cc(Cl)ccc32)C12CCCCC2 yielded an IC50 (second compound 0.00949 µM) of 1560 nM, an IC50 (second compound 0.03 µM) of over 3000 nM and an IC50 (second compound 0.0949 µM) of over 3000 nM. For the same compound, the IC50 (second compound 0.3 µM) was 1700 nM, the IC50 (second compound 0.949 µM) was 1640 nM and the IC50 (second compound 3 µM) was 929 nM. The viability, T/C (second compound 0.00949 µM, first compound 0.00949 µM) was 107%, the viability, T/C (second compound 0.00949 µM, first compound 0.03 µM) was 89% and the viability, T/C (second compound 0.00949 µM, first compound 0.0949 µM) was 85.4%. For the same compound, the viability, T/C (second compound 0.00949 µM, first compound 0.3 µM) was 62.7%, the viability, T/C (second compound 0.00949 µM, first compound 0.949 µM) was 57.3% and the viability, T/C (second compound 0.00949 µM, first compound 3 µM) was 42.9%. It also gave a viability, T/C (second compound 0.03 µM, first compound 0.00949 µM) of 104%, a viability, T/C (second compound 0.03 µM, first compound 0.03 µM) of 91.8% and a viability, T/C (second compound 0.03 µM, first compound 0.0949 µM) of 80.4%. For the same compound, the viability, T/C (second compound 0.03 µM, first compound 0.3 µM) was 67.8%, the viability, T/C (second compound 0.03 µM, first compound 0.949 µM) was 59% and the viability, T/C (second compound 0.03 µM, first compound 3 µM) was 50.4%. It also gave a viability, T/C (second compound 0.0949 µM, first compound 0.00949 µM) of 109%, a viability, T/C (second compound 0.0949 µM, first compound 0.03 µM) of 84.9% and a viability, T/C (second compound 0.0949 µM, first compound 0.0949 µM) of 86.1%. It also gave a viability, T/C (second compound 0.0949 µM, first compound 0.3 µM) of 65.3%, a viability, T/C (second compound 0.0949 µM, first compound 0.949 µM) of 61.7% and a viability, T/C (second compound 0.0949 µM, first compound 3 µM) of 51.2%. It also gave a viability, T/C (second compound 0.3 µM, first compound 0.00949 µM) of 102%, a viability, T/C (second compound 0.3 µM, first compound 0.03 µM) of 86.3% and a viability, T/C (second compound 0.3 µM, first compound 0.0949 µM) of 82.7%. The viability, T/C (second compound 0.3 µM, first compound 0.3 µM) was 68.6%, the viability, T/C (second compound 0.3 µM, first compound 0.949 µM) was 54.2% and the viability, T/C (second compound 0.3 µM, first compound 3 µM) was 44.6%. It also gave a viability, T/C (second compound 0.949 µM, first compound 0.00949 µM) of 105%, a viability, T/C (second compound 0.949 µM, first compound 0.03 µM) of 95.8% and a viability, T/C (second compound 0.949 µM, first compound 0.0949 µM) of 88.3%. The viability, T/C (second compound 0.949 µM, first compound 0.3 µM) was 63.6%, the viability, T/C (second compound 0.949 µM, first compound 0.949 µM) was 57.8% and the viability, T/C (second compound 0.949 µM, first compound 3 µM) was 44.2%. The viability, T/C (second compound 3 µM, first compound 0.00949 µM) was 91.2%, the viability, T/C (second compound 3 µM, first compound 0.03 µM) was 83.3% and the viability, T/C (second compound 3 µM, first compound 0.0949 µM) was 71.7%. It also gave a viability, T/C (second compound 3 µM, first compound 0.3 µM) of 60%, a viability, T/C (second compound 3 µM, first compound 0.949 µM) of 53.6% and a viability, T/C (second compound 3 µM, first compound 3 µM) of 35.4%.
Compound `O=C(c1cc(Cc2n[nH]c(=O)c3ccccc23)ccc1F)N1CCN(C(=O)C2CC2)CC1` + CNC(C)C(=O)NC1CN(S(=O)(=O)c2cccc(S(=O)(=O)N3CCC4CCC(C(=O)NC(c5ccccc5)c5ccccc5)N4C(=O)C(NC(=O)C(C)NC)C3)c2)CCC2CCC(C(=O)NC(c3ccccc3)c3ccccc3)N2C1=O has an IC50 (second compound 0.00316 µM) of under 31.6 nM, an IC50 (second compound 0.01 µM) of over 10000 nM and an IC50 (second compound 0.0316 µM) of over 10000 nM. The IC50 (second compound 0.1 µM) was over 10000 nM, the IC50 (second compound 0.316 µM) was over 10000 nM and the IC50 (second compound 1 µM) was over 10000 nM. For the same compound, the viability, T/C (second compound 0.00316 µM, first compound 0.0316 µM) was 43.1%, the viability, T/C (second compound 0.00316 µM, first compound 0.1 µM) was 45.3% and the viability, T/C (second compound 0.00316 µM, first compound 0.316 µM) was 41%. For the same compound, the viability, T/C (second compound 0.00316 µM, first compound 1 µM) was 47.4%, the viability, T/C (second compound 0.00316 µM, first compound 3.16 µM) was 44.6% and the viability, T/C (second compound 0.00316 µM, first compound 10 µM) was 36.6%. The viability, T/C (second compound 0.01 µM, first compound 0.0316 µM) was 99.4%, the viability, T/C (second compound 0.01 µM, first compound 0.1 µM) was 101% and the viability, T/C (second compound 0.01 µM, first compound 0.316 µM) was 97.5%. For the same compound, the viability, T/C (second compound 0.01 µM, first compound 1 µM) was 94.5%, the viability, T/C (second compound 0.01 µM, first compound 3.16 µM) was 75.9% and the viability, T/C (second compound 0.01 µM, first compound 10 µM) was 72%. The viability, T/C (second compound 0.0316 µM, first compound 0.0316 µM) was 101%, the viability, T/C (second compound 0.0316 µM, first compound 0.1 µM) was 99.4% and the viability, T/C (second compound 0.0316 µM, first compound 0.316 µM) was 100%. For the same compound, the viability, T/C (second compound 0.0316 µM, first compound 1 µM) was 105%, the viability, T/C (second compound 0.0316 µM, first compound 3.16 µM) was 102% and the viability, T/C (second compound 0.0316 µM, first compound 10 µM) was 70.7%. The viability, T/C (second compound 0.1 µM, first compound 0.0316 µM) was 92.6%, the viability, T/C (second compound 0.1 µM, first compound 0.1 µM) was 91.9% and the viability, T/C (second compound 0.1 µM, first compound 0.316 µM) was 89.7%. It also gave a viability, T/C (second compound 0.1 µM, first compound 1 µM) of 99.3%, a viability, T/C (second compound 0.1 µM, first compound 3.16 µM) of 94.5% and a viability, T/C (second compound 0.1 µM, first compound 10 µM) of 71.9%. For the same compound, the viability, T/C (second compound 0.316 µM, first compound 0.0316 µM) was 93.4%, the viability, T/C (second compound 0.316 µM, first compound 0.1 µM) was 89.1% and the viability, T/C (second compound 0.316 µM, first compound 0.316 µM) was 97.9%. It also gave a viability, T/C (second compound 0.316 µM, first compound 1 µM) of 89.7%, a viability, T/C (second compound 0.316 µM, first compound 3.16 µM) of 93.7% and a viability, T/C (second compound 0.316 µM, first compound 10 µM) of 80%. It also gave a viability, T/C (second compound 1 µM, first compound 0.0316 µM) of 94.5%, a viability, T/C (second compound 1 µM, first compound 0.1 µM) of 87% and a viability, T/C (second compound 1 µM, first compound 0.316 µM) of 83.3%. For the same compound, the viability, T/C (second compound 1 µM, first compound 1 µM) was 93.1%, the viability, T/C (second compound 1 µM, first compound 3.16 µM) was 89.2% and the viability, T/C (second compound 1 µM, first compound 10 µM) was 68.3%.
